Activity calls are given as the source filed them.
How the values were obtained:
[1] = NIH3T3 cell viability loss – ATP luminescence, mouse fibroblasts, counter-screen, dose response (AID 2010); type: functional, cell-based;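 further: cells exposed to compound for about 90 hours before reading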
Cytochrome P450 2C19 = Cytochrome P450 2C19 (Homo sapiens, UniProt P33261); assay: Cytochrome panel assay with activity outcomes. Panel member name: p450-cyp2c19 Compounds with AC50 equal or less than 10 uM are considered active; type: functional; settings: read-out: AC50
Mu-type opioid receptor = Mu-type opioid receptor (Homo sapiens, UniProt P35372); assay: HTS Image-Based Screen for Agonists of the MOR Receptor. [Related pubchem assays (depositor defined):AID1777, AID1785, AID1786, AID2133]; type: functional;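 further: imaging of beta-arrestin GFP recruitment into spots after receptor activation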
[2] = target: T1, Delta-type opioid receptor (Homo sapiens, UniProt P41143); assay: HTS Image-Based Screen for Agonists of the DOR Receptor. [Related pubchem assays (depositor defined):AID1777, AID1786, AID2133]; type: functional
Beta-galactosidase [3] = target: T2, Beta-galactosidase (Escherichia coli, UniProt Q8VNN2); assay: detection-enzyme interference by beta-gal modulators – biochemical, E. coli enzyme, set 3, artefact control for CCR6 antagonist project, dose response (AID 504712); type: functional
[4] = target: T3, C-C chemokine receptor type 6 (Homo sapiens, UniProt P51684); assay: antagonism of CCR6 beta-arrestin recruitment – cell-based, luminescent beta-arrestin readout, dose response (AID 504728); type: functional
T3 sequence (P51684 whole entry): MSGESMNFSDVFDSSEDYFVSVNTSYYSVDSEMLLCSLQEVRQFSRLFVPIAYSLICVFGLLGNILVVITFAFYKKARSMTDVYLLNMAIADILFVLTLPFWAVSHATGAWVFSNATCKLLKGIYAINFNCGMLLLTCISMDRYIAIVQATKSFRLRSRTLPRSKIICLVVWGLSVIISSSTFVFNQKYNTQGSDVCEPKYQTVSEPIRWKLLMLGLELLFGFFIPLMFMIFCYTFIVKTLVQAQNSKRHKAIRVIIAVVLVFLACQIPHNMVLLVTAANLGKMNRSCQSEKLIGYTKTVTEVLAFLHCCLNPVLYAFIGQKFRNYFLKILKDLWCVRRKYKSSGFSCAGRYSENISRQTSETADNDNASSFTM

Beta-galactosidase [5] = target: T2, Beta-galactosidase; type: functional
[6] = target: T4, Kappa-type opioid receptor (Homo sapiens, UniProt P41145); type: functional
Cytochrome P450 2C9 = Cytochrome P450 2C9 (Homo sapiens, UniProt P11712)
[7] = target: T4, Kappa-type opioid receptor; type: functional; remark: listed apart in the source
[8] = Trypanosoma cruzi growth suppression in host cells – NIH3T3 host cells, beta-gal luminescence, confirmation (AID 2044); type: functional, cell-based;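 further: intracellular parasites grown in NIH/3T3 mouse fibroblasts as host cells; luminescent beta-galactosidase reporter signal from transgenic T. cruzi replicating inside host cells; inhibitors lower the luminescence signal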
[9] = target: T1, Delta-type opioid receptor; assay: HTS Image-Based Screen for Antagonists of the DOR Receptor. [Related pubchem assays (depositor defined):AID1777, AID1785, AID1786, AID2133]; type: functional
[10] = target: Neurotensin receptor type 1 (Homo sapiens, UniProt P30989); type: functional;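 further: Image-based confirmatory dose-response assay measuring agonist activity at NTR1; NTR1-expressing U2OS osteosarcoma cells imaged for beta-arrestin GFP spot formation; agonist potency where compounds increase beta-arrestin recruitment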
[11] = target: T5, Ubiquitin-conjugating enzyme E2 N (Homo sapiens, UniProt P61088); type: functional
T5 sequence (P61088 whole entry): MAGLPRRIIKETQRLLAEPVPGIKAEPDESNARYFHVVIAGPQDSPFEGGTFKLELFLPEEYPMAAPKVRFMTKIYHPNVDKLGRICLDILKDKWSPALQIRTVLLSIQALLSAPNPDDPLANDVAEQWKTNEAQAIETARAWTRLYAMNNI

[12] = tested on: Streptococcus sp. 'group A'; assay: Streptococcus pyogenes SK(-)GAS viability under kanamycin – luminescence, BacTiterGlo, confirmation, counter-screen for streptokinase expression inhibitor project, dose response (AID 1900); type: functional, organism-based
Streptococcus = assay: GAS UMAA2166 growth inhibition – luminescence, BacTiterGlo, counter-screen for streptokinase expression inhibitor project, dose response (AID 1915); type: functional, organism-based;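 further: potency for reduction of bacterial viability or growth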
Streptokinase A = target: T6, Streptokinase A (Streptococcus pyogenes serotype M1, UniProt P10520); assay: viability-normalized secreted streptokinase activity reduction – plasminogen activation absorbance, OD405, dose response (AID 1914); type: functional, Streptococcus pyogenes M1 GAS;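 further: secreted streptokinase activity via plasminogen activation per viability signal from cell pellet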
T6 sequence (P10520 whole entry): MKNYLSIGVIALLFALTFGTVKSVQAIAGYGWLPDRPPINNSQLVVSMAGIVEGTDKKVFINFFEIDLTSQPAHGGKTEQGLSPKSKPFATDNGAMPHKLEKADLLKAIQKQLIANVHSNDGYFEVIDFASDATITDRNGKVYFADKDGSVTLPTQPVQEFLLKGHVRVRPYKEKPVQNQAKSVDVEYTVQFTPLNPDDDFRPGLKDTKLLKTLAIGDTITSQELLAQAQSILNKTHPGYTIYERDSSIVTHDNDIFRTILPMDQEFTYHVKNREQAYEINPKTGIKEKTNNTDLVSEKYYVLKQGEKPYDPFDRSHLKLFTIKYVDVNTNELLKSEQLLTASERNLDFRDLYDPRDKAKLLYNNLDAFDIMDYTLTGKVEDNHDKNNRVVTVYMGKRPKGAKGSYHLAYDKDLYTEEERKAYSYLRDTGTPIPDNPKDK

Bcl-2-related protein A1 = target: T7, Bcl-2-related protein A1 (Mus musculus, UniProt Q07440); type: functional;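 further: confirmatory dose–response counterscreen on Bfl-1, used to check hits from a UBC13 polyubiquitin inhibitor campaign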
T7 sequence (Q07440 whole entry): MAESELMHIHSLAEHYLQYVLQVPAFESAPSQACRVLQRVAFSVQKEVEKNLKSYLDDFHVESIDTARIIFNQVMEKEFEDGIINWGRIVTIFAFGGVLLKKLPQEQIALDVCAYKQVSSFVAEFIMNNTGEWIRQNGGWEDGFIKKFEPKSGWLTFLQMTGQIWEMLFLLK

[13] = target: T5, Ubiquitin-conjugating enzyme E2 N; type: functional; remark: listed apart in the source
Melanocortin receptor 4 = Melanocortin receptor 4 (Homo sapiens, UniProt P32245); type: functional, cell-based;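 further: Cell-based assay with luminescence read-out, confirmatory dose-response testing for agonist activity of biased ligands at MC4R; human U2OS cells with tagged receptor and beta-arrestin; potency of agonists that increase receptor coupling to beta-arrestin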
Cytochrome P450 2D6 = Cytochrome P450 2D6 (Homo sapiens, UniProt P10635);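 further: CYP2D6 member of a cytochrome P450 panel assay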
[14] = target: T8, Short transient receptor potential channel 4 (Mus musculus, UniProt Q9QUQ5); assay: calcium entry via TRPC4 opening agents – cell-based, HEK293 TRPC4/mu-opioid, Fluo-4 calcium, dose response (AID 434937); type: functional
T8 sequence (Q9QUQ5 whole entry): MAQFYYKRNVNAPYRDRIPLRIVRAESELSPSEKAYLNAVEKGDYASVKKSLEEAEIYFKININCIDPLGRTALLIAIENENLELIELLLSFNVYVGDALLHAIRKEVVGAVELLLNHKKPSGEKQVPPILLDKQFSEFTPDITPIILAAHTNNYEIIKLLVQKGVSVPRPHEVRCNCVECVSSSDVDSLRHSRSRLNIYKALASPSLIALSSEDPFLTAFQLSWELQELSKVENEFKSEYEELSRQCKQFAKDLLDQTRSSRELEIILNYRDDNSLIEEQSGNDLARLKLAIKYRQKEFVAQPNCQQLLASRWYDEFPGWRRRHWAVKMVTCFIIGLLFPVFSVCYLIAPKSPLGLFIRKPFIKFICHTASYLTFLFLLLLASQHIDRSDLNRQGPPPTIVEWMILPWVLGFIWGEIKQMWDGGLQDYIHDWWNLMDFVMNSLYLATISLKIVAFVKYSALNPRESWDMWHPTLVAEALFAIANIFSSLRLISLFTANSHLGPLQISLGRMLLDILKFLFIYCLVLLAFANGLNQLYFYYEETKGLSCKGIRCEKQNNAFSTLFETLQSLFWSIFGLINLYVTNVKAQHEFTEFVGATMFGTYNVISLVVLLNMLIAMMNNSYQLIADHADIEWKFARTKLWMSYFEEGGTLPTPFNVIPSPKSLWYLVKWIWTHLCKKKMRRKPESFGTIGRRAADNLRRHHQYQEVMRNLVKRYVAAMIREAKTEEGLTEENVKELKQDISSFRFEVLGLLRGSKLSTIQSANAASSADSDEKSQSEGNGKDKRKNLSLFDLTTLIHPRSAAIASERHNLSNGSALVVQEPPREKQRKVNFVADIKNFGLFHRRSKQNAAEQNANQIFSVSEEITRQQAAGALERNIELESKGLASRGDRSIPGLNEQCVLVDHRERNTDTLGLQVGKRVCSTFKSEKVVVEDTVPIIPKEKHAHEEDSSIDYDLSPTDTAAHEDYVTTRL

[15] = target: T9, Tyrosine-protein phosphatase non-receptor type 22 (Homo sapiens, UniProt Q9Y2R2); type: functional
T9 sequence (Q9Y2R2 whole entry): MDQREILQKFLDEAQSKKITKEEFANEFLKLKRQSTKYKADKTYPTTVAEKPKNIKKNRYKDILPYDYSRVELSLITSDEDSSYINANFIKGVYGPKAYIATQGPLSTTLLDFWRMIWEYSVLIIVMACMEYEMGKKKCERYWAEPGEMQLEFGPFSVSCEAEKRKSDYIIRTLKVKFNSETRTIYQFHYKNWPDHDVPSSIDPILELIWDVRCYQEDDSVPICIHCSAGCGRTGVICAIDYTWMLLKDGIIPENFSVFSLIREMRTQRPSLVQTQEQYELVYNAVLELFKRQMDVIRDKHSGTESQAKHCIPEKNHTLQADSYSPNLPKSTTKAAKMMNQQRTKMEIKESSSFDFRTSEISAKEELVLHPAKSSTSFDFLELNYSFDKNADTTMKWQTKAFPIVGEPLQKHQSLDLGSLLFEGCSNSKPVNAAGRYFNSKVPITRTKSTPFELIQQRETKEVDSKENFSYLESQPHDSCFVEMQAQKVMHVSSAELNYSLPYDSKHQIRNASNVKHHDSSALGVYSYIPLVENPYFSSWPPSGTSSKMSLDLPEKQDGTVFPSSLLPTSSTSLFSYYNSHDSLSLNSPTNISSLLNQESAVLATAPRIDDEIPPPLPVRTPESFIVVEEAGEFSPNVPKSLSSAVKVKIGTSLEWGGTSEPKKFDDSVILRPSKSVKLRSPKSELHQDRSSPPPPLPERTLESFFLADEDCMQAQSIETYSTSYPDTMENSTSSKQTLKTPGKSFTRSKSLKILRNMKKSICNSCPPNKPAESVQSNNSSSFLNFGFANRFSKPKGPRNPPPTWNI

[16] = target: T9, Tyrosine-protein phosphatase non-receptor type 22; type: functional; remark: listed apart in the source
[17] = target: T10, Tyrosine-protein phosphatase non-receptor type 7 (Homo sapiens, UniProt P35236); type: functional
T10 sequence (P35236 whole entry): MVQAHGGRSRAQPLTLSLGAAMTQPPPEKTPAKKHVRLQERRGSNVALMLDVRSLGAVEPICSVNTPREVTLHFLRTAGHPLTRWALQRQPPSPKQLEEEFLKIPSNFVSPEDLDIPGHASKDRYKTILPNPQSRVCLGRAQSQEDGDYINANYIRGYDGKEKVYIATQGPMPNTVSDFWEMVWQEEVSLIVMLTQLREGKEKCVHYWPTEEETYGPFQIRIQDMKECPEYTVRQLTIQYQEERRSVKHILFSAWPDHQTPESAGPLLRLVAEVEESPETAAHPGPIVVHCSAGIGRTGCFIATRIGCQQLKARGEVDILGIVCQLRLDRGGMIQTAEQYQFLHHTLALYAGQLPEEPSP

[18] = target: T11, E3 ubiquitin-protein ligase XIAP (Homo sapiens, UniProt P98170); assay: small molecules displacing peptide from XIAP – biochemical, IAP family, fluorescence polarization (AID 1018); type: functional
[19] = target: T11, E3 ubiquitin-protein ligase XIAP; assay: Counter Screen using XIAP-Bir3 for Chemical Antagonists of Bir1/2 domains of IAP-family anti-apoptotic proteins. [Related pubchem assays (depositor defined):AID1018, AID1449, AID1514, AID1638, AID1749, AID1750, AID488957, AID488963]

T11 sequence (P98170 whole entry): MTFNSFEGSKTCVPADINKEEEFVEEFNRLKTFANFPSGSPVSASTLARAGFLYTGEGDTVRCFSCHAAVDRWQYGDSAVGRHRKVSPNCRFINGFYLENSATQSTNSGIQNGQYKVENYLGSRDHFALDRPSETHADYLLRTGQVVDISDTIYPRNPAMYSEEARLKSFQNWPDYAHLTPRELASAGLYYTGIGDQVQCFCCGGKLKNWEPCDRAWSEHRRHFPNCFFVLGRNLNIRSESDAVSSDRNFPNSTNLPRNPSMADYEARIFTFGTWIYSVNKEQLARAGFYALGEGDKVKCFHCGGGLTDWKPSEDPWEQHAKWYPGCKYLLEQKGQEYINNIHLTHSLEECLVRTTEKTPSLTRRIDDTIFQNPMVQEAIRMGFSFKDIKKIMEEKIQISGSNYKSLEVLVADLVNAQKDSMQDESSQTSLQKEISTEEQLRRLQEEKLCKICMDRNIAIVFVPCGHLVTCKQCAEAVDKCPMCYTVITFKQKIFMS
T4 sequence (P41145 whole entry): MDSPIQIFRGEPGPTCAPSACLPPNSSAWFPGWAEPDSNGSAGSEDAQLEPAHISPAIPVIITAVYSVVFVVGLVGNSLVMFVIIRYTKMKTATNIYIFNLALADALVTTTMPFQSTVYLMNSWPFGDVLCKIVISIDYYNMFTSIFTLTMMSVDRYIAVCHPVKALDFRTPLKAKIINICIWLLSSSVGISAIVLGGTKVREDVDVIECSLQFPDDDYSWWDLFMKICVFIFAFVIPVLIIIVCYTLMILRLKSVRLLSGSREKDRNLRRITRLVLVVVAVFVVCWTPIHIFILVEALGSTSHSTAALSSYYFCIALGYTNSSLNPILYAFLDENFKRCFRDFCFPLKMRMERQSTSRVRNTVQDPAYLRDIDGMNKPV
T2 sequence (Q8VNN2 whole entry): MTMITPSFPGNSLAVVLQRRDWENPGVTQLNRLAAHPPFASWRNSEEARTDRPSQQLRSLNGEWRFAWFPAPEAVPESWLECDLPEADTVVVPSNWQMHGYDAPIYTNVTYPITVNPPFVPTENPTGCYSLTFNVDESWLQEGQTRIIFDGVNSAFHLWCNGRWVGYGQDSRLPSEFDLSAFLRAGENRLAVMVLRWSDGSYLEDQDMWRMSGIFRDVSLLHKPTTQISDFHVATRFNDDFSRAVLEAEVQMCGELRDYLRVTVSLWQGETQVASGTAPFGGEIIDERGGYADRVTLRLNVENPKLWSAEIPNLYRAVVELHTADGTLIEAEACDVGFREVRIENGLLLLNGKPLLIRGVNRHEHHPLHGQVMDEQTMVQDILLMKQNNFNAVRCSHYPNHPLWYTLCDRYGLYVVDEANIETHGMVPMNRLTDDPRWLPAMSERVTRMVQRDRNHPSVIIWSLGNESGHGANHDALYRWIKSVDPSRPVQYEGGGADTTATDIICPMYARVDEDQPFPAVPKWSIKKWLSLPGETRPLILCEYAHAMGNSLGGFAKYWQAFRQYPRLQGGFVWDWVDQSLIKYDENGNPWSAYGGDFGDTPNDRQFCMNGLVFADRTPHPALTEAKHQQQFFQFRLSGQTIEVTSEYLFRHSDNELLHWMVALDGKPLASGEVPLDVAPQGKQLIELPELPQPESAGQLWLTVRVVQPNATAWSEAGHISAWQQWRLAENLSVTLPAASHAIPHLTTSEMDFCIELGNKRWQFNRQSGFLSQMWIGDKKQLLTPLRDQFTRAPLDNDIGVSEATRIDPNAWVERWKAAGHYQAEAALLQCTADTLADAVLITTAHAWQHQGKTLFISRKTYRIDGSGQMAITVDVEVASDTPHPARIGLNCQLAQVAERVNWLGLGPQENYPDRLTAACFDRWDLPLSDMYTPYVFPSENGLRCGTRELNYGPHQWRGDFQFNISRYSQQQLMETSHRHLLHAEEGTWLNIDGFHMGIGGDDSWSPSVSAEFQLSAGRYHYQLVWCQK
T1 sequence (P41143 whole entry): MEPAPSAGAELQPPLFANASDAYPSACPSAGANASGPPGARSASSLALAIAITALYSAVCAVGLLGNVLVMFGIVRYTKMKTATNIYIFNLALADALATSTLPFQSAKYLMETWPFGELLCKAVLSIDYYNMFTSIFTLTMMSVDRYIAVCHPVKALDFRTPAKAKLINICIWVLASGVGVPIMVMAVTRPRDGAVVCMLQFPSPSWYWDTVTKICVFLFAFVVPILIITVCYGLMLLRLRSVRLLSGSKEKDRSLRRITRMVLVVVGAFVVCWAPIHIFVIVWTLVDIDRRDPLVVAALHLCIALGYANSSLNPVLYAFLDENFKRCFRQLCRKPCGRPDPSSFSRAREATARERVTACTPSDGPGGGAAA
Cytochrome P450 2C19, sequence (P33261 whole entry): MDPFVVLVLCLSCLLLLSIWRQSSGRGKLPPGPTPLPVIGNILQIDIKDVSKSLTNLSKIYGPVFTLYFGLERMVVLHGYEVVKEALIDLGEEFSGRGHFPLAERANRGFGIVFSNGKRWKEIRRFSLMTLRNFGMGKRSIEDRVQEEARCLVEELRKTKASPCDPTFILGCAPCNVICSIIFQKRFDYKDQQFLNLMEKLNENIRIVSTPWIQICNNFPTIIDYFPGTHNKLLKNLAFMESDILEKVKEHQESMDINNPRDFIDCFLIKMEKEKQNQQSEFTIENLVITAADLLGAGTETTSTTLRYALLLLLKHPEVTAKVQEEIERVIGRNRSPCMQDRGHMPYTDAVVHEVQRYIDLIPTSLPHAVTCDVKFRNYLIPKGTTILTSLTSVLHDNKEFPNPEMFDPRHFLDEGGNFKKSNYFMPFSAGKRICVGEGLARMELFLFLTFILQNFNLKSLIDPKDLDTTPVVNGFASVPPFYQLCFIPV
Melanocortin receptor 4, sequence (P32245 whole entry): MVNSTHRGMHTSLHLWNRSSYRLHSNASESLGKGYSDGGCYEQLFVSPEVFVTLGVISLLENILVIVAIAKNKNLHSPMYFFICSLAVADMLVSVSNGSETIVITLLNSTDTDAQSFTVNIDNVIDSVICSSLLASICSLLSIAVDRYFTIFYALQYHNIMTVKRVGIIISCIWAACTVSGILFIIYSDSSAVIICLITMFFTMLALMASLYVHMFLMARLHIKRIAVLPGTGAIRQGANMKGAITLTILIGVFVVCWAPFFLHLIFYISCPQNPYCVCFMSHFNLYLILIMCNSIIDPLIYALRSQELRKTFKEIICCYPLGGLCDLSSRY
Cytochrome P450 2C9, sequence (P11712 whole entry): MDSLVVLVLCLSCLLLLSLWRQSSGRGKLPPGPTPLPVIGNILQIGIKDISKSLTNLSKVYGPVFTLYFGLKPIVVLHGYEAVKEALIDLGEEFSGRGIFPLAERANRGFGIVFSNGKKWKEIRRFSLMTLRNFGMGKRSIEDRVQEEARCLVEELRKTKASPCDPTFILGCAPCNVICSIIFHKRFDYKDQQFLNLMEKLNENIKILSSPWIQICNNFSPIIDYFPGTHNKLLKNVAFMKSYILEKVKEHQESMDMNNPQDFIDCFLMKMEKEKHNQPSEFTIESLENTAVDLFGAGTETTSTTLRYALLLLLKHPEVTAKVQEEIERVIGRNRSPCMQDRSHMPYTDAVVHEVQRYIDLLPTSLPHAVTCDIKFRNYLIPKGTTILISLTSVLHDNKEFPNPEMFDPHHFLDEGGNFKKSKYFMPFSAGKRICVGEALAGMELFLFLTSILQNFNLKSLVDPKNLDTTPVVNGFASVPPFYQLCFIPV
Neurotensin receptor type 1, sequence (P30989 whole entry): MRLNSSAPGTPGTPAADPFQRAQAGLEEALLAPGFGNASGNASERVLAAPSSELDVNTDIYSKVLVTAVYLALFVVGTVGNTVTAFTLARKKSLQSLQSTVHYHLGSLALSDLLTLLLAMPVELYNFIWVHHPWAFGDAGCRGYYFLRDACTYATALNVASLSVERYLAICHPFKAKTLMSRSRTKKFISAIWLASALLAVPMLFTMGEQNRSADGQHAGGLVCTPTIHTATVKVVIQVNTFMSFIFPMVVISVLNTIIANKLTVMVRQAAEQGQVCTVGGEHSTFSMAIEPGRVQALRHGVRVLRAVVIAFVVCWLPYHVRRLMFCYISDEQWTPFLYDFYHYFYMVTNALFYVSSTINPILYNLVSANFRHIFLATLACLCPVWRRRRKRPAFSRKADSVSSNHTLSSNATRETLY
Mu-type opioid receptor, sequence (P35372 whole entry): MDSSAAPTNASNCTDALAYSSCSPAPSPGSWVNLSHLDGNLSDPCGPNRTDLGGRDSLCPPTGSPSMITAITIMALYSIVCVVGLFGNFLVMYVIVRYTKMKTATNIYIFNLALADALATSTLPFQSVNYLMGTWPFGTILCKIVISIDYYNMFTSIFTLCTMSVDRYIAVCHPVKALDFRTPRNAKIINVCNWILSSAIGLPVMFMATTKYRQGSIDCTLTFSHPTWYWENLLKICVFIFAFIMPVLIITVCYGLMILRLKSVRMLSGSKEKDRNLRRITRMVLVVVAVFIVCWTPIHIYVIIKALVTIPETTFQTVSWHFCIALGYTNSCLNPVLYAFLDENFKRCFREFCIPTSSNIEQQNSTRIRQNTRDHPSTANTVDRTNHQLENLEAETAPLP
Cytochrome P450 2D6, sequence (P10635 whole entry): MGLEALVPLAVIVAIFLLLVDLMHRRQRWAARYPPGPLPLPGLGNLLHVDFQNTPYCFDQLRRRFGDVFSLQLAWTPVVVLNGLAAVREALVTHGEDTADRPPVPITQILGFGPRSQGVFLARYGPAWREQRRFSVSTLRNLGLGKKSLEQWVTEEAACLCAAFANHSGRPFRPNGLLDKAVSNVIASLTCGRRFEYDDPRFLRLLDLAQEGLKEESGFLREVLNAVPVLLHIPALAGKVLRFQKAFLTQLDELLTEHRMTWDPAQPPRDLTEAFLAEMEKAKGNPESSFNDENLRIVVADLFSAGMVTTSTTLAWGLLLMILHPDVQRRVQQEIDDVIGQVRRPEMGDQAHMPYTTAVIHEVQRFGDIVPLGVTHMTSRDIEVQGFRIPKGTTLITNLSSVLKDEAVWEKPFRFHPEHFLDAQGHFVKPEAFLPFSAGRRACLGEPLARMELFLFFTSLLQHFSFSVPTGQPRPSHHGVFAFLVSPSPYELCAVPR

Structure (SMILES): O=C(Nc1nccs1)c1sc2cc(Cl)ccc2c1Cl
- EC50 [1]: 17.9 µM (active)
- AC50 (Cytochrome P450 2C19): 0.631 µM (inconclusive)
- EC50 (Mu-type opioid receptor): > 32 µM (inactive)
- EC50 [2]: > 32 µM (inactive)
- IC50 (Beta-galactosidase [3]): > 66.6 µM (inactive)
- IC50 [4]: > 66.6 µM (inactive)
- EC50 (Beta-galactosidase [5]): > 31.5 µM (inactive)
- IC50 [6]: > 32 µM
- AC50 (Cytochrome P450 2C9): 0.891 µM (inconclusive)
- IC50 [7]: 9.5 µM (active)
- EC50 [8]: 2.31 µM (active)
- IC50 [9]: > 32 µM (inactive)

Structure (SMILES): O=C1c2cccc3cccc(c23)C(=O)N1CC1CCN(CC(O)COc2ccc3ccccc3c2)CC1 (stereo not given)
- EC50 [1]: > 60 µM (not active)
- EC50 [10]: 18.5 µM (active)
- IC50 [11]: 7.69 µM (active)
- EC50 [12]: 6.34 µM (active)
- EC50 (Streptococcus): 18.6 µM (active)
- EC50 (Streptokinase A): 17.9 µM (inconclusive)
- IC50 (Bcl-2-related protein A1): > 20 µM (inactive)
- IC50 [13]: 15 µM (active)
- EC50 (Melanocortin receptor 4): 6.31 µM (active)
- EC50 [8]: 1.65 µM (active)

Structure (SMILES): O=C(c1sc2ccccc2c1Cl)N(Cc1ccccc1)C1CCS(=O)(=O)C1 (stereo not given)
- AC50 (Cytochrome P450 2D6): 14.1 µM (inconclusive)
- EC50 [14]: 3.35 µM (active)

Structure (SMILES): O=C(CCN1C(=O)C2CC=C(Cl)CC2C1=O)NCc1ccco1 (stereo not given)
- IC50 [15]: > 79.4 µM (inactive)
- IC50 [16]: > 79.4 µM (inactive)
- IC50 [17]: > 79.4 µM (inactive)

Structure (SMILES): CCOc1ccccc1NC(=O)CN1CCC(C(=O)c2ccc(F)cc2)CC1
- IC50 [11]: > 20 µM (inactive)
- IC50 (Bcl-2-related protein A1): > 20 µM (inactive)
- IC50 [13]: 13.8 µM (active)

Structure (SMILES): CCOC(=O)c1ccc(NC(=O)NCCc2c[nH]cn2)cc1
- EC50 [14]: 0.133 µM (active)

Structure (SMILES): CC/N=C1\Cn2c(nc3scc(-c4ccccc4)c3c2=O)CN1CC
- IC50 [18]: > 100 µM (not active)
- IC50 [19]: > 100 µM (inactive)

Structure (SMILES): COc1ccc(OC)c(/C=N/NC(=O)c2ccc(Cn3cc([N+](=O)[O-])cn3)o2)c1
- IC50 [18]: > 100 µM (not active)
- IC50 [19]: > 100 µM (inactive)
